Experiments:
[1] = molecular target: T1, human α1G T-type channels (Homo sapiens, UniProt O43497); test: T-type calcium channel block, whole cell patch clamp in HEK cells (α1G); assay type: cell-based; conditions: HEK cells, patch clamp, mainly non-inactivated protocol; values above 10 μM shown as 10 μM, below 0.30 μM shown as 0.30 μM; read-out: T-type Calcium Channel Block α1G IC50
T1 construct: expressed in transfected cells; host or cells: HEK 293

[2] = molecular target: T2, human α1H T-type channels (Homo sapiens, UniProt O95180); test: T-type calcium channel block, whole cell patch clamp in HEK cells (α1H); assay type: cell-based; conditions: HEK cells, patch clamp, mainly non-inactivated protocol; values above 10 μM shown as 10 μM; read-out: T-type Calcium Channel Block α1H IC50
T2 construct: expressed in transfected cells; host or cells: HEK 293
T2 sequence (O95180 whole entry): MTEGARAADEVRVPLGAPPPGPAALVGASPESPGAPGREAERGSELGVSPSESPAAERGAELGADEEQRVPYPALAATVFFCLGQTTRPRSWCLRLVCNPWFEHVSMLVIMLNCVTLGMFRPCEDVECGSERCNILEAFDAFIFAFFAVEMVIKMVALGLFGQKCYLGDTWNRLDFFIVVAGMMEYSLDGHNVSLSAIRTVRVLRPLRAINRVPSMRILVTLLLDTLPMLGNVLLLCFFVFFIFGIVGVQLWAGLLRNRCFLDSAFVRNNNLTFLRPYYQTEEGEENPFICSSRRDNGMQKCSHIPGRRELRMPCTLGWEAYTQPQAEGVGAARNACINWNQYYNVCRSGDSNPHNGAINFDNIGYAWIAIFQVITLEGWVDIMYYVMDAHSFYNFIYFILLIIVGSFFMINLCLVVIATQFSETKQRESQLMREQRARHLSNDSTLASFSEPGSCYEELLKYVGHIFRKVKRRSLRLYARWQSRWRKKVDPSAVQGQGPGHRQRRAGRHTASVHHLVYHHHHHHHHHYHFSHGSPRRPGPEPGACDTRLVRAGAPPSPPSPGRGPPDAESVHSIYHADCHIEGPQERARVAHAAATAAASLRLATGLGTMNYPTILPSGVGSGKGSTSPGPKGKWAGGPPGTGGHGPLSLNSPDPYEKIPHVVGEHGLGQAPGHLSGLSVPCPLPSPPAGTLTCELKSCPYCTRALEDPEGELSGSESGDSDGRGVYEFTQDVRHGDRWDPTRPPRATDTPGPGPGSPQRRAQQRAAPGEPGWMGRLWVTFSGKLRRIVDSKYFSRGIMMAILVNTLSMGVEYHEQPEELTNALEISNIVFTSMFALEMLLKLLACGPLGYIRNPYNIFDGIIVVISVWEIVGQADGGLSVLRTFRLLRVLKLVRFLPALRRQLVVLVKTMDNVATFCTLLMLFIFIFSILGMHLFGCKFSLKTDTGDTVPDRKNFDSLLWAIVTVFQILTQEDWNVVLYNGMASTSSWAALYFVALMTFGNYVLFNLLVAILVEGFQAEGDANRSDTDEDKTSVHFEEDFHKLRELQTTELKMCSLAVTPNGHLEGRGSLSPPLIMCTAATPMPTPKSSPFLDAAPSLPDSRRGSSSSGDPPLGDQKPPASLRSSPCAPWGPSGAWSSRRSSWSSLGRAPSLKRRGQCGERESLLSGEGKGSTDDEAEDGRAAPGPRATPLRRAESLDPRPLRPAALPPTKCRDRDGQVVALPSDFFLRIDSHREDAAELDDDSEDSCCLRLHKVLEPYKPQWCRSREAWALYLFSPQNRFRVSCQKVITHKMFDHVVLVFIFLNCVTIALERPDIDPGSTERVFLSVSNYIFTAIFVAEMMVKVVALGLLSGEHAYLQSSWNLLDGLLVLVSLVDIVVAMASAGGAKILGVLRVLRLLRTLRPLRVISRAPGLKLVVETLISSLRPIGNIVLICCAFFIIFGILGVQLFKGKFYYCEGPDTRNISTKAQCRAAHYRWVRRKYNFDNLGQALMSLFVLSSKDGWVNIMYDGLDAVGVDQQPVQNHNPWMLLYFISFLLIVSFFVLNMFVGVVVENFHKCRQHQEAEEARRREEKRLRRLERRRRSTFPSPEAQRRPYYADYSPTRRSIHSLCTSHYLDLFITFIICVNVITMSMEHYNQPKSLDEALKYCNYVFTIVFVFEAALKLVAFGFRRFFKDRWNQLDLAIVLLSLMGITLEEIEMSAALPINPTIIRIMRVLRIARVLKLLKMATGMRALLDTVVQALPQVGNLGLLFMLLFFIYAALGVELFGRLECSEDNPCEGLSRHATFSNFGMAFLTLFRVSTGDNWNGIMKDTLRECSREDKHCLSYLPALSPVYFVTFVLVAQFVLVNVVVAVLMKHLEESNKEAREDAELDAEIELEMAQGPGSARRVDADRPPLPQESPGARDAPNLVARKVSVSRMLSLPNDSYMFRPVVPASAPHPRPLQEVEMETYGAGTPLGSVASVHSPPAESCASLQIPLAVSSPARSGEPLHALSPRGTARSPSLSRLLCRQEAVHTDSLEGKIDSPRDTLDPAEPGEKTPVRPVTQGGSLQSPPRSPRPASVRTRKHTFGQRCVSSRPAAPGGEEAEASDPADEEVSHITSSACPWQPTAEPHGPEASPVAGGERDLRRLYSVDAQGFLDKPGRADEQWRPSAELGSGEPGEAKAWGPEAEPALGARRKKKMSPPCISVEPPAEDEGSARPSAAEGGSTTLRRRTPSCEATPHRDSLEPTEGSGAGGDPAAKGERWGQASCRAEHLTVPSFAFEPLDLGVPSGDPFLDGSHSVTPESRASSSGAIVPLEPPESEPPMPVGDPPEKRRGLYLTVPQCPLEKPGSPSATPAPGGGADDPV

T1 sequence (O43497 whole entry): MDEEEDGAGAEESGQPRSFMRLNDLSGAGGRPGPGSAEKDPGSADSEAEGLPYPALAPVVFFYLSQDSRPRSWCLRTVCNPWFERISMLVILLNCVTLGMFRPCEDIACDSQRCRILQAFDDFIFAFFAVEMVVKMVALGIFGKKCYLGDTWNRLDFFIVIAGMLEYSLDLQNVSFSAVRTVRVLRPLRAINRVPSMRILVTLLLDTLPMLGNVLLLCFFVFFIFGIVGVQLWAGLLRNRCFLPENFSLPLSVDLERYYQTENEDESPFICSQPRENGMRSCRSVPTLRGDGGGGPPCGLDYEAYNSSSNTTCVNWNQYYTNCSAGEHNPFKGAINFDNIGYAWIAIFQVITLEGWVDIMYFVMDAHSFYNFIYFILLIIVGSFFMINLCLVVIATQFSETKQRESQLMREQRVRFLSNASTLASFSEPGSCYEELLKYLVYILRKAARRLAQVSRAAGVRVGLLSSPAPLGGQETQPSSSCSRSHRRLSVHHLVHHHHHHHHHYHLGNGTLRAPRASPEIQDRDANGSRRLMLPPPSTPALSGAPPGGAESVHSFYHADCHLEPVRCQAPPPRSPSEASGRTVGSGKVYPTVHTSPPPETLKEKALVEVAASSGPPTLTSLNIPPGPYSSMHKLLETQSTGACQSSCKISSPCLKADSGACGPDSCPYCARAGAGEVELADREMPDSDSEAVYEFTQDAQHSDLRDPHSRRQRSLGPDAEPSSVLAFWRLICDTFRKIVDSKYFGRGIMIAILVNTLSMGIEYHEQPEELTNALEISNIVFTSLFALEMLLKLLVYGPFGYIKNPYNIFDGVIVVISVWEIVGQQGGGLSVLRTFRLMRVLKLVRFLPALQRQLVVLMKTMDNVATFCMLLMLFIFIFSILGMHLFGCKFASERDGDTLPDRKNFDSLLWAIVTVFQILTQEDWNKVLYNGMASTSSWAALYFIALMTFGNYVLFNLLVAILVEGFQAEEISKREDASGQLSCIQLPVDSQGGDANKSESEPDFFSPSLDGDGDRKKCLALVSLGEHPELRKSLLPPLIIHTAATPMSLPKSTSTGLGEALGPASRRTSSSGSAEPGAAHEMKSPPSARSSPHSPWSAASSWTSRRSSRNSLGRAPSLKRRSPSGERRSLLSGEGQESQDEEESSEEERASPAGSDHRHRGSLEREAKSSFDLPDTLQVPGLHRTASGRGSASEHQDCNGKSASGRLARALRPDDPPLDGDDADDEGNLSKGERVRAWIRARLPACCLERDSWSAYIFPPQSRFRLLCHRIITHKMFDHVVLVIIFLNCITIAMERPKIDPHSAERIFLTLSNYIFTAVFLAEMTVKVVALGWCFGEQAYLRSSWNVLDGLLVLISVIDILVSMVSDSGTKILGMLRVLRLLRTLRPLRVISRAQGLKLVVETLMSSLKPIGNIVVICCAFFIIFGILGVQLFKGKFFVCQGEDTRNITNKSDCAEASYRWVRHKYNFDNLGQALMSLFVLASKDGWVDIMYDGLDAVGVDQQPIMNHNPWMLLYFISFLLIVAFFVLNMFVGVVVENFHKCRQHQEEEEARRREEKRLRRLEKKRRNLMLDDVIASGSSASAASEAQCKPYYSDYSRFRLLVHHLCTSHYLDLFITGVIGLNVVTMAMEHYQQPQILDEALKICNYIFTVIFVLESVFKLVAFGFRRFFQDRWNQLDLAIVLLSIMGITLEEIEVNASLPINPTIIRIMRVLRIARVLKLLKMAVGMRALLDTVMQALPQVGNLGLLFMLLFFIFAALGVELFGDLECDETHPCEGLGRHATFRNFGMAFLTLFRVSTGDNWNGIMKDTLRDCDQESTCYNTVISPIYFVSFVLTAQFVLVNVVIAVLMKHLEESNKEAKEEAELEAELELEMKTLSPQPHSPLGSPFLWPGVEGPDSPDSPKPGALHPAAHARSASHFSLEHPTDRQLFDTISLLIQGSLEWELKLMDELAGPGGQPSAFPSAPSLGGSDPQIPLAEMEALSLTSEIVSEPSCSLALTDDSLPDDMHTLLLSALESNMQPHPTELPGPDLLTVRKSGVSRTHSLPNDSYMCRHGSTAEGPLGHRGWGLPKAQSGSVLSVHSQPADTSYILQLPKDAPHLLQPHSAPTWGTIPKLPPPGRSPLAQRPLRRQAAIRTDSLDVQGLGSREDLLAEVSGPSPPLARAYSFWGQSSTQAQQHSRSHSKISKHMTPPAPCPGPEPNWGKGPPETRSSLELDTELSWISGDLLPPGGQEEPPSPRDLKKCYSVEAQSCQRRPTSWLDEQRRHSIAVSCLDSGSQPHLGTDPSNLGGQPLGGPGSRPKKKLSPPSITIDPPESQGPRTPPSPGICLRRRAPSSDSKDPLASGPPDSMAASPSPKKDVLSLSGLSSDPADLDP

Row | SMILES | IC50 [1] [nM] | IC50 [2] [nM]
1 | CC(C)(C)NC(=O)CN1CCC(CNC(=O)c2cc(Cl)cc(Br)c2)CC1 [Compound 381, 3-bromo-N-((1-(2-(tert-butylamino)-2-oxoethyl)piperidin-4-yl)methyl)-5-chlorobenzamide] | < 300 | 80
2 | CC(C)(C)NC(=O)CN1CCC(CNC(=O)c2cc(Br)cc(C(F)(F)F)c2)CC1 [Compound 382, 3-bromo-N-((1-(2-(tert-butylamino)-2-oxoethyl)piperidin-4-yl)methyl)-5-(trifluoromethyl)benzamide] | < 300 | 90
3 | CC(C)(C)NC(=O)CN1CCC(CNC(=O)Cc2cc(C(F)(F)F)cc(C(F)(F)F)c2)CC1 [Compound 383, 2-(3,5-bis(trifluoromethyl)phenyl)-N-((1-(2-(tert-butylamino)-2-oxoethyl)piperidin-4-yl)methyl)acetamide] | 1220 | 1350
4 | CC(C)(C)NC(=O)CN1CCC(CNC(=O)c2cc(Br)cc(Br)c2)CC1 [Compound 384, 3,5-dibromo-N-((1-(2-(tert-buylamino)-2-oxoethyl)piperidin-4-yl)methyl)benzamide] | < 300 | 90
5 | CC(C)S(=O)(=O)NCCN1CCC(CNC(=O)c2cc(F)cc(Cl)c2)CC1 [Compound 385, 3-chloro-5-fluoro-N-((1-(2-(1-methylethylsulfonamido)ethyl)piperidin-4-yl)methyl)benzamide] | 580 | 800
6 | CC(C)S(=O)(=O)NCCN1CCC(CNC(=O)c2cccc(Br)c2)CC1 [Compound 386, 3-bromo-N-((1-(2-(1-methylethylsulfonamido)ethyl)piperidin-4-yl)methyl)benzamide] | 870 | 490
7 | O=C(NCC1CCN(CCNS(=O)(=O)C2CC2)CC1)c1ccc(C(F)(F)F)c(F)c1 [Compound 387, N-((1-(2-(cyclopropanesulfonamido)ethyl)piperidin-4-yl)methyl)-3-fluoro-4-(trifluoromethyl)benzamide] | 990 | 720
8 | O=C(NCC1CCN(CCNS(=O)(=O)C(F)(F)F)CC1)c1cc(Br)cc(Br)c1 [Compound 388, 3,5-dibromo-N-((1-(2-(trifluoromethylsulfonamido)ethyl)piperidin-4-yl)methyl)benzamide] | < 300 | 160
9 | O=C(NCC1CCN(CCNS(=O)(=O)C(F)(F)F)CC1)c1ccc(OC(F)(F)F)cc1 [Compound 389, 4-(trifluoromethoxy)-N-((1-(2-(trifluoromethylsulfonamido)ethyl)piperidin-4-yl)methyl)benzamide] | > 10000 | > 10000
10 | O=C(NCC1CCN(CCNC(=O)C2(C(F)(F)F)CCC2)CC1)c1cc(C(F)(F)F)cc(C(F)(F)F)c1 [Compound 434, 3,5-bis(trifluoromethyl)-N-((1-(2-(1-(trifluoromethyl)cyclobutanecarboxamido)ethyl)piperidin-4-yl)methyl)benzamide] | < 300 | 60
11 | O=C(NCC1CCN(CCNC(=O)C2(C(F)(F)F)CCC2)CC1)c1cc(F)cc(C(F)(F)F)c1 [Compound 435, 3-fluoro-5-(trifluoromethyl)-N-((1-(2-(1-(trifluoromethyl)cyclobutanecarboxamido)ethyl)piperidin-4-yl)methyl)benzamide] | < 300 | 90
12 | Cc1cc(C)cc(C(=O)NCC2CCN(CC(=O)NC(C)C)CC2)c1 [Compound 436, N-((1-(2-(isopropylamino)-2-oxoethyl)piperidin-4-yl)methyl)-3,5-dimethylbenzamide] | > 10000 | > 10000
13 | Cc1cc(F)cc(C(=O)NCC2CCN(CC(=O)NC(C)C)CC2)c1 [Compound 437, 3-fluoro-N-((1-(2-(isopropylamino)-2-oxoethyl)piperidin-4-yl)methyl)-5-methylbenzamide] | > 10000 | > 10000
14 | COc1cc(F)cc(C(=O)NCC2CCN(CC(=O)NC(C)C)CC2)c1 [Compound 438, 3-fluoro-N-((1-(2-(isopropylamino)-2-oxoethyl)piperidin-4-yl)methyl)-5-methoxybenzamide] | 3910 | 1710
15 | COc1cc(OC)cc(C(=O)NCC2CCN(CC(=O)NC(C)C)CC2)c1 [Compound 439, N-((1-(2-(isopropylamino)-2-oxoethyl)piperidin-4-yl)methyl)-3,5-dimethoxybenzamide] | 3280 | 2170
16 | CC(C)NC(=O)CN1CCC(CNC(=O)c2cccc(C(F)(F)F)c2)CC1 [Compound 440, N-((1-(2-(isopropylamino)-2-oxoethyl)piperidin-4-yl)methyl)-3-(trifluoromethyl)benzamide] | > 10000 | > 10000
17 | CC(C)NC(=O)CN1CCC(CNC(=O)c2cccc(Br)c2)CC1 [Compound 441, 3-bromo-N-((1-(2-(isopropylamino)-2-oxoethyl)piperidin-4-yl)methyl)benzamide] | 9480 | > 10000

Row | SMILES | IC50 [1] [nM] | IC50 [2] [nM]
18 | CC(C)NC(=O)CN1CCC(CNC(=O)c2cccc(Cl)c2)CC1 [Compound 442, 3-chloro-N-((1-(2-(isopropylamino)-2-oxoethyl)piperidin-4-yl)methyl)benzamide] | > 10000 | > 10000
19 | CC(C)NC(=O)CN1CCC(CNC(=O)c2cc(F)cc(Cl)c2)CC1 [Compound 443, 3-chloro-5-fluoro-N-((1-(2-(isopropyl-amino)-2-oxoethyl)piperidin-4-yl)methyl)benzamide] | 3310 | 2810
20 | CC(C)NC(=O)CN1CCC(CNC(=O)c2cccc(OC(F)(F)F)c2)CC1 [Compound 444, N-((1-(2-(isopropylamino)-2-oxoethyl)piperidin-4-yl)methyl)-3-(trifluoromethoxy)benzamide] | 7400 | > 10000
21 | CCCNC(=O)CN1CCC(CNC(=O)c2cc(C)cc(C)c2)CC1 [Compound 445, 3,5-dimethyl-N-((1-(2-oxo-2-(propylamino)ethyl)piperidin-4-yl)methyl)benzamide] | > 10000 | > 10000
22 | CCCNC(=O)CN1CCC(CNC(=O)c2cc(C)cc(F)c2)CC1 [Compound 446, 3-fluoro-5-methyl-N-((1-(2-oxo-2-(propylamino)ethyl)piperidin-4-yl)methyl)benzamide] | > 10000 | > 10000
23 | CCCNC(=O)CN1CCC(CNC(=O)c2cc(F)cc(OC)c2)CC1 [Compound 447, 3-fluoro-5-methoxy-N-((1-(2-oxo-2-(propylamino)ethyl)piperidin-4-yl)methyl)benzamide] | 9150 | 3080
24 | CCCNC(=O)CN1CCC(CNC(=O)c2cc(OC)cc(OC)c2)CC1 [Compound 448, 3,5-dimethoxy-N-((1-(2-oxo-2-(propylamino)ethyl)piperidin-4-yl)methyl)benzamide] | 9730 | 4640
25 | CCCNC(=O)CN1CCC(CNC(=O)c2cccc(C(F)(F)F)c2)CC1 [Compound 449, N-((1-(2-oxo-2-(propylamino)ethyl)piperidin-4-yl)methyl)-3-(trifluoromethyl)benzamide] | > 10000 | > 10000
26 | CCCNC(=O)CN1CCC(CNC(=O)c2cccc(Br)c2)CC1 [Compound 450, 3-bromo-N-((1-(2-oxo-2-(propylamino)ethyl)piperidin-4-yl)methyl)benzamide] | 8880 | > 10000
27 | CCCNC(=O)CN1CCC(CNC(=O)c2cccc(Cl)c2)CC1 [Compound 451, 3-chloro-N-((1-(2-oxo-2-(propylamino)ethyl)piperidin-4-yl)methyl)benzamide] | > 10000 | > 10000
28 | CCCNC(=O)CN1CCC(CNC(=O)c2cc(F)cc(Cl)c2)CC1 [Compound 452, 3-chloro-5-fluoro-N-((1-(2-oxo-2-(propylamino)ethyl)piperidin-4-yl)methyl)benzamide] | 4240 | 7920
29 | CCCNC(=O)CN1CCC(CNC(=O)c2cccc(OC(F)(F)F)c2)CC1 [Compound 453, N-((1-(2-oxo-2-(proyplamino)ethyl)piperidin-4-yl)methyl)-3-(trifluoromethoxy)benzamide] | 8240 | > 10000
30 | Cc1cc(C)cc(C(=O)NCC2CCN(CC(=O)NC(C)(C)C(F)(F)F)CC2)c1 [Compound 454, 3,5-dimethyl-N-((1-(2-oxo-2-(1,1,1-trifluoro-2-methylpropan-2-ylamino)ethyl)piperidin-4-yl)methyl)benzamide] | < 300 | 40
31 | Cc1cc(F)cc(C(=O)NCC2CCN(CC(=O)NC(C)(C)C(F)(F)F)CC2)c1 [Compound 455, 3-fluoro-5-methyl-N-((1-(2-oxo-2-(1,1,1-trifluoro-2-methylpropan-2-ylamino)ethyl)piperidin-4-yl)methyl)benzamide] | < 300 | 30
32 | COc1cc(F)cc(C(=O)NCC2CCN(CC(=O)NC(C)(C)C(F)(F)F)CC2)c1 [Compound 456, 3-fluoro-5-methoxy-N-((1-(2-oxo-2-(1,1,1-trifluoro-2-methylpropan-2-ylamino)ethyl)piperidin-4-yl)methyl)benzamide] | < 300 | 20
33 | CC(C)(NC(=O)CN1CCC(CNC(=O)c2cccc(C(F)(F)F)c2)CC1)C(F)(F)F [Compound 458, N-((1-(2-oxo-2-(1,1,1-trifluoro-2-methylpropan-2-ylamino)ethyl)piperidin-4-yl)methyl)-3-(trifluoromethyl)benzamide] | < 300 | 40
34 | CC(C)(NC(=O)CN1CCC(CNC(=O)c2cccc(Br)c2)CC1)C(F)(F)F [Compound 459, 3-bromo-N-((1-(2-oxo-2-(1,1,1-trifluoro-2-methylpropan-2-ylamino)ethyl)piperidin-4-yl)methyl)benzamide] | < 300 | 20

Source: patent publication US8569344B2, “N-piperidinyl acetamide derivatives as calcium channel blockers” (Zalicus Pharmaceuticals Ltd., priority 2008, dated 2013)
